# Source: publication doi:10.1101/2024.08.19.608619, “Discovery of potent SARS-CoV-2 nsp3 macrodomain inhibitors uncovers lack of translation to cellular antiviral response” (bioRxiv, 2024)
# “And” between values parts separate entries of the source, which are not always exact repeats. Equal entries are not always repeated. Where two headings read alike, the source gives them in different places.
# Key:
# [1] = Hepatic microsomal stability, MLM; format: in vitro ADME
# [2] = test system: SARS-CoV-2, isolate USA-WA1/2020; assay: microbe, parasite or virus in culture; format: cell-based
# in vitro = conditions: human, hela-ace2 cells, 50.0
# BZD (central) = assay: In vitro CEREP profiling, BZD (central) (agonist radioligand); format: binding; conditions: test compound 10 uM
# Excerpt: (§1) Supplement media-1.zip/Safety_Panel_Profile.csv, table | column: perc_inhibition
# PDE4D2 (h) = biological target: T1, PDE4D2 (h) (Homo sapiens, UniProt Q08499); assay: In vitro CEREP profiling, PDE4D2 (h); format: biochemical; conditions: test compound concentration 10 uM, Enzyme and Cell-based assays
# T1 construct: purchased Eurofins Cerep (SafetyScreen44), recognised from the panel format
# Excerpt: as §1
# CB1 (h) = biological target: T2, CB1 (h) (Homo sapiens, UniProt P21554); assay: In vitro CEREP profiling, CB1 (h) (agonist radioligand); format: binding; conditions: test compound 10 uM
# T2 construct: purchased Eurofins Cerep (SafetyScreen44), recognised from the panel format
# Excerpt: as §1
# A2A (h) = biological target: T3, A2A (h) (Homo sapiens, UniProt P29274); assay: In vitro CEREP profiling, A2A (h) (agonist radioligand); format: binding; conditions: test compound 10 uM
# T3 construct: purchased Eurofins Cerep (SafetyScreen44), recognised from the panel format
# Excerpt: as §1
# [3] = In vitro human hepatocyte stability; format: in vitro ADME
# Excerpt: (§2) Supplement media-1.zip/Hepatocyte_Stability.csv, table | column: clint; t_half
# NMDA = assay: In vitro CEREP profiling, NMDA (antagonist radioligand); format: binding; conditions: test compound concentration 10 uM
# Excerpt: as §1
# [4] = In vitro rat SD liver microsomal stability; format: in vitro ADME
# Excerpt: (§3) Supplement media-1.zip/Hepatic_Microsomal_Stability.csv, table | column: clint; t_half
# KV channel = assay: In vitro CEREP profiling, KV channel (antagonist radioligand); format: binding; conditions: test compound concentration 10 uM
# Excerpt: as §1
# D1 (h) = biological target: T4, D1 (h) (Homo sapiens, UniProt P21728); assay: In vitro CEREP profiling, D1 (h) (antagonist radioligand); format: binding; conditions: test compound 10 uM
# T4 construct: purchased Eurofins Cerep (SafetyScreen44), recognised from the panel format
# Excerpt: as §1
# [5] = In vitro dog liver microsomal stability; format: in vitro ADME
# Excerpt: as §3
# GR (h) = biological target: T5, GR (h) (Homo sapiens, UniProt P04150); assay: In vitro CEREP profiling, GR (h) (agonist radioligand); format: binding; conditions: test compound concentration 10 uM
# T5 construct: purchased Eurofins Cerep (SafetyScreen44), recognised from the panel format
# T5 sequence (P04150 1-777): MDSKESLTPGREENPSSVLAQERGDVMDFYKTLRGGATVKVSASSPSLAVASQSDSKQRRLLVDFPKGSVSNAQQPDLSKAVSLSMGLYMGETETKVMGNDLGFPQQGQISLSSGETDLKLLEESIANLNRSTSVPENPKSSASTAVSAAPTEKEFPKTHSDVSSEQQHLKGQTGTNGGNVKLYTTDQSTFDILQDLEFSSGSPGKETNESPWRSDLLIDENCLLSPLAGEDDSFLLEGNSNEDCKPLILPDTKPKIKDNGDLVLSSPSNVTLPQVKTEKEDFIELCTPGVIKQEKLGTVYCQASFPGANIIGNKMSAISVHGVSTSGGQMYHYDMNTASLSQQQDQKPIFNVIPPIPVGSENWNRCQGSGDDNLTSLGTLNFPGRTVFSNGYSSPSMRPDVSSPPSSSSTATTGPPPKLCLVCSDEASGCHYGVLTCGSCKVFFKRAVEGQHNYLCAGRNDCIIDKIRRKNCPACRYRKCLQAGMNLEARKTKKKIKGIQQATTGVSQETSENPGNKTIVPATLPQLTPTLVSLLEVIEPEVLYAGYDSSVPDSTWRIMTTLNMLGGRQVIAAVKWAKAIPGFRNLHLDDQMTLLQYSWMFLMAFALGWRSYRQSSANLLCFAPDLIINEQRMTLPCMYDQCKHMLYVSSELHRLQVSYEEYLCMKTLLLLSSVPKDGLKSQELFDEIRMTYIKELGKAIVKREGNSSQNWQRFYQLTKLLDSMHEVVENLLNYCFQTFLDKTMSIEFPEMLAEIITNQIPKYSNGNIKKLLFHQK
# Excerpt: as §1
# [6] = biological target: T6, norepinephrine transporter (h) (Homo sapiens, UniProt P23975); assay: In vitro CEREP profiling, norepinephrine transporter (h) (antagonist radioligand); format: binding; conditions: test compound concentration 10 uM
# T6 construct: purchased Eurofins Cerep (SafetyScreen44), recognised from the panel format
# Excerpt: as §1
# 5-HT2B (h) = biological target: T7, 5-HT2B (h) (Homo sapiens, UniProt P41595); assay: In vitro CEREP profiling, 5-HT2B (h) (agonist radioligand); format: binding; conditions: test compound concentration 10 uM
# T7 construct: purchased Eurofins Cerep (SafetyScreen44), recognised from the panel format
# Excerpt: as §1
# Protein binding = format: in vitro ADME
# Excerpt: Supplement media-1.zip/Protein_Binding.csv, table | column: fu; perc_bound; perc_free; perc_recovered
# [7] = In vitro dog hepatocyte stability; format: in vitro ADME
# Excerpt: as §2
# Na+ channel (site 2) = assay: In vitro CEREP profiling, Na+ channel (site 2) (antagonist radioligand); format: binding; conditions: test compound concentration 10 uM
# Excerpt: as §1
# MERS-CoV = assay: microbe, parasite or virus in culture; format: cell-based
# [8] = In vitro mouse liver microsomal stability
# [9] = In vitro mouse liver microsomal stability; no cofactor
# [10] = HeLa-ACE2 SARS-CoV-2 antiviral effect without P-gp inhibitor, maximum measured response of dose series
# [11] = HeLa-ACE2 SARS-CoV-2 antiviral effect without P-gp inhibitor, minimum measured response of dose series
# [12] = In vitro mouse liver microsomal stability, no cofactor
# [13] = HeLa-ACE2 SARS-CoV-2 antiviral effect without P-gp inhibitor, read-out: ec50
# [14] = HeLa-ACE2 SARS-CoV-2 antiviral effect without P-gp inhibitor, read-out: ec90
# [15] = HeLa-ACE2 SARS-CoV-2 antiviral effect without P-gp inhibitor, maximum measured response
# [16] = HeLa-ACE2 SARS-CoV-2 antiviral effect without P-gp inhibitor, minimum measured response
# [17] = In vitro dog plasma protein binding
# [18] = In vitro fetal calf serum protein binding
# [19] = In vitro human plasma protein binding
# [20] = In vitro mouse plasma protein binding
# [21] = In vitro rat plasma protein binding
# [22] = read-out: perc_inhibition (% inhibition of the binding of a ligand specific for each target)
# [23] = Severe acute respiratory syndrome coronavirus 2, HeLa-ACE2
# [24] = read-out: perc_inhibition, % inhibition of the binding of a ligand specific for each target
# [25] = Middle East respiratory syndrome-related coronavirus, VeroE6/TMPRSS2
# T3 sequence (P29274 whole entry): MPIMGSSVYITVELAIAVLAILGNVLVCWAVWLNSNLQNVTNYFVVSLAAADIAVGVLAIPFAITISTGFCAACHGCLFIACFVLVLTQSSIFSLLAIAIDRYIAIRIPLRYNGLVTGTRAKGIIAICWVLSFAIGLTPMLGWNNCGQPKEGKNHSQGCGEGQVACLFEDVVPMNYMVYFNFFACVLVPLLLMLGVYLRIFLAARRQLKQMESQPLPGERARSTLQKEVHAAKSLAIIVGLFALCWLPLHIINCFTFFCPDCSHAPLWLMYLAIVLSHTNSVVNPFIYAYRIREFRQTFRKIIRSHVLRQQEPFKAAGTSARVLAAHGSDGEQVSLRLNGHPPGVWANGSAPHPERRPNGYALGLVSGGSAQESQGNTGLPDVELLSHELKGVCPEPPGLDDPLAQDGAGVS
# T7 sequence (P41595 whole entry): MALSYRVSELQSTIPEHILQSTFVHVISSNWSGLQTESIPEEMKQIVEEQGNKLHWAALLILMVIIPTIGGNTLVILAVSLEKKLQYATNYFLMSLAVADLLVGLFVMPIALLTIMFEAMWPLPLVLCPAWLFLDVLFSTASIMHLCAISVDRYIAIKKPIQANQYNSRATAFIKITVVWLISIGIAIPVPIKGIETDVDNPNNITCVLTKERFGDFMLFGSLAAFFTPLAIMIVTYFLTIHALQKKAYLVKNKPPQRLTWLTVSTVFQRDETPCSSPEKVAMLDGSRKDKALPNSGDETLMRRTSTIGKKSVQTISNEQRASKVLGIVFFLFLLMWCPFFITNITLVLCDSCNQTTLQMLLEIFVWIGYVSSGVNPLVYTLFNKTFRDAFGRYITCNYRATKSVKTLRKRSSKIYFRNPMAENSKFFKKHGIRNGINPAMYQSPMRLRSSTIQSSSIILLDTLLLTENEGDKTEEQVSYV
# T4 sequence (P21728 whole entry): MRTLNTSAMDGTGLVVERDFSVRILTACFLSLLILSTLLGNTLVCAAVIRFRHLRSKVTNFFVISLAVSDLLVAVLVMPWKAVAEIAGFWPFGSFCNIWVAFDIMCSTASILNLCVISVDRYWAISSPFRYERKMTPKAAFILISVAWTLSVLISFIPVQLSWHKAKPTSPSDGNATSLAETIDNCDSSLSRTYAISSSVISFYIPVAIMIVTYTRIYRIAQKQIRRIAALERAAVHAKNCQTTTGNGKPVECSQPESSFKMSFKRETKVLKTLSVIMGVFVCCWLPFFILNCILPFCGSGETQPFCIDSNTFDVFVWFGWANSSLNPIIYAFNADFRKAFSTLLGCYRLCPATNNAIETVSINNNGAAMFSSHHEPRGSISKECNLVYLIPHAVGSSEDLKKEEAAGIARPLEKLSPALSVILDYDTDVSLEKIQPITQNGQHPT
# T2 sequence (P21554 whole entry): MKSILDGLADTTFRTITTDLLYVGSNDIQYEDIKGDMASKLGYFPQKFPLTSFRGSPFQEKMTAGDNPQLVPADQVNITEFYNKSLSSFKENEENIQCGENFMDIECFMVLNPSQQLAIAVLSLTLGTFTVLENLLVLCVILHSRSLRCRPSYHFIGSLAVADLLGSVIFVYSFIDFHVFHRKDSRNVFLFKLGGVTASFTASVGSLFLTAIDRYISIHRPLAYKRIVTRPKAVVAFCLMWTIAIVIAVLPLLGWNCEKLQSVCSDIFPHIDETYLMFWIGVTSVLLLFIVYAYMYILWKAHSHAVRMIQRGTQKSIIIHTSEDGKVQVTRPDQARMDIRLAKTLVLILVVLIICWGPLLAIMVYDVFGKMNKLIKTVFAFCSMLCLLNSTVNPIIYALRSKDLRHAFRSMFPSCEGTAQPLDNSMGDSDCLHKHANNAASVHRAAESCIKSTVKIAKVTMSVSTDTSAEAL
# T1 sequence (Q08499 303-809): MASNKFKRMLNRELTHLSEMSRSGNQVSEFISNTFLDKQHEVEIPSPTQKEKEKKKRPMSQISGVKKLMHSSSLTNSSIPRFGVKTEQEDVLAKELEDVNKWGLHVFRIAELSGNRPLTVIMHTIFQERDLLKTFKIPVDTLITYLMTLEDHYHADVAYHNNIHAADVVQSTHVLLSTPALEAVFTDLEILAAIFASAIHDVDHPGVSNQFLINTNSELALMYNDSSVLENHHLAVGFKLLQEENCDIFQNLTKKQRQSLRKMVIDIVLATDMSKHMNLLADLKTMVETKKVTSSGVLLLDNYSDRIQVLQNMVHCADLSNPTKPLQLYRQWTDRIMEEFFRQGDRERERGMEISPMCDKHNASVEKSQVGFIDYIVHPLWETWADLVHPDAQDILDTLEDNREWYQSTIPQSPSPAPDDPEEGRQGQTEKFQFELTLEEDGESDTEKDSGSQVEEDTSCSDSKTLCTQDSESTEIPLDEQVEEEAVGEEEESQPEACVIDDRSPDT
# T6 sequence (P23975 whole entry): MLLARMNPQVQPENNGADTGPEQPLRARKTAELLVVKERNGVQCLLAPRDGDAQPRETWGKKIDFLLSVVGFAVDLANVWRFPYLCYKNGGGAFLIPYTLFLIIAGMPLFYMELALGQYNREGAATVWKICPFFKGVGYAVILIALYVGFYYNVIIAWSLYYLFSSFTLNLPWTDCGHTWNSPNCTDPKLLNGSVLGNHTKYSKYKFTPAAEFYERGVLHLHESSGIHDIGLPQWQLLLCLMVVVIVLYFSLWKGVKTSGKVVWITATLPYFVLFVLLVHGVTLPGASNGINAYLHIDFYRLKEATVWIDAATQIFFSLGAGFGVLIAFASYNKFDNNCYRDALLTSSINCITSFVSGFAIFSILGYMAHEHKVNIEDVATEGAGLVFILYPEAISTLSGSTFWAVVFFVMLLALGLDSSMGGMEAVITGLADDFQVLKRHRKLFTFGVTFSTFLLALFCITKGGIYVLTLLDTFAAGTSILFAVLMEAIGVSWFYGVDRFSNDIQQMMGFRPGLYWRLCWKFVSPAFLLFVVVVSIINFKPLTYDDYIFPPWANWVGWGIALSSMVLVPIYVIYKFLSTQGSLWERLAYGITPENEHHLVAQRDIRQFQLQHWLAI
smiles,measurement,setting,value
CC(C)C(Nc1ncnc2[nH]ccc12)c1ccc2c(c1)S(=O)(=O)CCC2 (stereo not drawn) [ASAP-0008327],perc_remaining,[1]; [8],10.0%
same,t_half,[1]; [8],12.1 min
same,perc_remaining_no_cofactor,[1]; [9],103.0%
same,microsomal CLint,"[1]; mouse, liver microsomes, In vitro mouse liver microsomal stability",138 µL/min/mg
same,perc_max_measured,[2]; [10],112.988%
same,perc_min_measured,[2]; [11],76.031%
same,EC50,"[2]; Severe acute respiratory syndrome coronavirus 2, HeLa-ACE2 SARS-CoV-2 antiviral effect without P-gp inhibitor, read-out: ec50",> 50 µM
same,EC90,"[2]; Severe acute respiratory syndrome coronavirus 2, HeLa-ACE2 SARS-CoV-2 antiviral effect without P-gp inhibitor, read-out: ec90",> 50 µM
COc1ccc([C@@H](Cc2nnn[nH]2)NC(=O)c2ncnc3[nH]ccc23)cc1 [ASAP-0008340],perc_remaining,[1]; [8],96.0%
same,t_half,[1]; [8],4400.5 min
same,perc_remaining_no_cofactor,[1]; [12],93.0%
CC(C)[C@@H](Nc1ncnc2[nH]c(-c3cnn(C)c3C#N)cc12)c1ccc2c(n1)OCCO2 [ASAP-0008418],clint,[1]; [8],139.0 µL/min/mg and 169.0 µL/min/mg
same,perc_remaining,[1]; [8],10.0% and 6.0%
same,t_half,[1]; [8],12.0 min and 9.9 min
same,perc_remaining_no_cofactor,[1]; [12],101.0%
same,perc_remaining_no_cofactor,[1]; [9],110.0%
same,perc_max_measured,[2]; [10],143.7% and 101.777%
same,perc_min_measured,[2]; [11],4.604% and 4.949%
same,EC50,[2]; [13],5.89 µM and 5.04 µM
same,EC90,[2]; [14],6.44 µM and 10.5 µM
Cn1ncc(-c2cc3c(N[C@@H](c4ccc5c(n4)OCCO5)C(C)(C)C)ncnc3[nH]2)c1C#N [ASAP-0011221],CC50 at 24 h,in vitro,> 20 µM
same,perc_inhibition (% inhibition of the binding of a ligand specific for each target),BZD (central),-5%
same,clint,[1]; [8],226.0 µL/min/mg
same,perc_remaining,[1]; [8],2.0%
same,t_half,[1]; [8],7.4 min
same,perc_remaining_no_cofactor,[1]; [12],94.0%
same,"perc_inhibition: % inhibition of control enzyme activity, PDE4D2 (h)",PDE4D2 (h),20%
same,perc_inhibition (% inhibition of the binding of a ligand specific for each target),CB1 (h),33%
same,perc_inhibition (% inhibition of the binding of a ligand specific for each target),A2A (h),52%
same,clint,[3],171.0 uL/min/1E6 cells
same,t_half,[3],4.04 min
same,perc_inhibition (% inhibition of the binding of a ligand specific for each target),NMDA,11%
same,perc_max_measured,[2]; [15],101.751%
same,perc_max_measured,[2]; [10],108.122%
same,perc_min_measured,[2]; [16],4.671%
same,perc_min_measured,[2]; [11],8.006%
same,EC50,[2]; [13],1.49 µM and 1.6 µM
same,EC90,[2]; [14],> 20 µM
same,clint,[4],129.0 µL/min/mg
same,t_half,[4],5.38 min
same,perc_inhibition (% inhibition of the binding of a ligand specific for each target),KV channel,5%
same,perc_inhibition (% inhibition of the binding of a ligand specific for each target),D1 (h),9%
same,clint,[5],17.8 µL/min/mg
same,t_half,[5],38.8 min
same,perc_inhibition (% inhibition of the binding of a ligand specific for each target),GR (h),28%
same,perc_inhibition (% inhibition of the binding of a ligand specific for each target),[6],27%
same,perc_inhibition (% inhibition of the binding of a ligand specific for each target),5-HT2B (h),-5%
same,fu,Protein binding; [17],0.012
same,perc_bound,Protein binding; [17],98.8%
same,perc_free,Protein binding; [17],1.2%
same,perc_recovered,Protein binding; [17],99.93%
same,fu,Protein binding; [18],0.021
same,perc_bound,Protein binding; [18],97.9%
same,perc_free,Protein binding; [18],2.13%
same,perc_recovered,Protein binding; [18],99.13%
same,fu,Protein binding; [19],0.006
same,perc_bound,Protein binding; [19],99.4%
same,perc_free,Protein binding; [19],0.571%
same,perc_recovered,Protein binding; [19],99.19%
same,fu,Protein binding; [20],0.011
same,perc_bound,Protein binding; [20],98.9%
same,perc_free,Protein binding; [20],1.06%
same,perc_recovered,Protein binding; [20],98.18%
same,fu,Protein binding; [21],0.018
same,perc_bound,Protein binding; [21],98.2%
same,perc_free,Protein binding; [21],1.83%
same,perc_recovered,Protein binding; [21],90.47%
same,clint,[7],3.81 uL/min/1E6 cells
same,t_half,[7],182.0 min
same,perc_inhibition (% inhibition of the binding of a ligand specific for each target),Na+ channel (site 2),34%
Cc1nn(C)cc1-c1cc2c(NC(c3ccc4c(c3)S(=O)(=O)CCC4)C(C)C)ncnc2[nH]1 (stereo not drawn) [ASAP-0011446],perc_inhibition (% inhibition of the binding of a ligand specific for each target),BZD (central),29%
same,perc_remaining,[1]; [8],4.0%
same,t_half,[1]; [8],8.3 min
same,perc_remaining_no_cofactor,[1]; [12],104.0%
same,microsomal CLint,[1]; liver microsomes; In vitro mouse liver microsomal stability,202 µL/min/mg
same,inhibition at 10 µM,"PDE4D2 (h); read-out: perc_inhibition: % inhibition of control enzyme activity, PDE4D2 (h)",43%
same,inhibition at 10 µM,CB1 (h); [22],0%
same,inhibition at 10 µM,A2A (h); [22],13%
same,perc_inhibition (% inhibition of the binding of a ligand specific for each target),NMDA,-2%
same,perc_max_measured,[2]; [15],111.189%
same,perc_max_measured,[2]; [10],120.747%
same,perc_min_measured,[2]; [16],56.402%
same,perc_min_measured,[2]; [11],82.491%
same,EC50,[2]; [23],> 20 µM
same,EC90,[2]; [23],> 20 µM
same,EC50,"[2]; Severe acute respiratory syndrome coronavirus 2, HeLa-ACE2, read-out: HelaACE2 EC50",> 20 µM
same,perc_inhibition (% inhibition of the binding of a ligand specific for each target),KV channel,1%
same,inhibition at 10 µM,D1 (h); [22],3%
same,inhibition at 10 µM,GR (h); [24],7%
same,inhibition at 10 µM,[6]; [24],-2%
same,EC50,MERS-CoV; [25],> 5 µM
same,EC90,MERS-CoV; [25],> 5 µM
same,perc_max_measured,"MERS-CoV; Vero E6/TMPRSS2 MERS-CoV antiviral effect with P-gp inhibitor, maximum measured response of dose series",103.374% and 130.763%
same,perc_min_measured,"MERS-CoV; Vero E6/TMPRSS2 MERS-CoV antiviral effect with P-gp inhibitor, minimum measured response of dose series",64.505% and 89.964%
same,inhibition at 10 µM,5-HT2B (h); [24],43%
same,perc_inhibition (% inhibition of the binding of a ligand specific for each target),Na+ channel (site 2),-1%
